One assay concerns Sprague Dawley rats. The assay is described as follows: Capsaicin induced secondary mechanical hyperalgesia model. The class given is in vivo. The settings on record: rat, 60 minutes before testing, secondary mechanical hyperalgesia 180 minutes after capsaicin, von Frey filaments. Here is the method:
(ii) In Vivo Data—Capsaicin Induced Secondary Mechanical Hyperalgesia Model:
Sprague Dawley rats were briefly restrained, and capsaicin was administered at 10 μg in 10 μL of vehicle by intraplantar injection into the center of the right hind paw. Secondary mechanical hyperalgesia (SMH) was measured at the heel away from the site of injection 180 minutes following capsaicin exposure. Compounds and gabapentin (positive control), were administered p.o. 60 minutes before testing (2 hours after capsaicin) or i.p. 30 minutes before testing (2.5 hours after capsaicin). SMH was measured using calibrated von Frey filaments (Stoelting, Woodale, Ill.). Following the 1 hour habituation in the testing room, rats were moved to individual plexiglass chambers that sit on top of a wire mesh to allow for access for stimulation of the plantar surface of the hind paws. Rats were allowed to acclimate to the new chambers for 15 minutes before the onset of testing. The paw withdrawal threshold was determined by increasing and decreasing stimulus intensity (force: g) and calculated using Dixon's up-down method (Chaplan, S. R.; Bach, F. W.; Pogrel, J. W.; Chung, J. M.; Yaksh, T. L.; Quantitative assessment of tactile allodynia in the rat paw. J. Neuroscience Methods 1994, 53(1), 55-63). The filaments (maximum force of 15.0 g) were held in place for 8 seconds or until there was a withdrawal response from the mechanical stimulation.

The target in a further assay is T1, Human Cav3.2 Channels (Homo sapiens, UniProt O95180).
T1 construct: expressed in transfected cells
The assay is described as follows: Electrophysiologic (whole-cell patch-clamp) assessment of calcium channel activity in HEK293 cells stably expressing hCav3.2. Format: cell-based. As to conditions: −77 mV, geometric mean, read-out: Human Cav3.2 −77 mV IC50 (μM) GeoMean. Here is the method:
(i) In Vitro Methods—Electrophysiologic Assessment of Calcium Channel Activity:
Patch-clamp recordings were performed using HEK293 cells stably expressing hCav3.2. Cells were plated in T175 flasks and grown at 37° C. and under 5% CO2 to approximately 50% confluency. On the day of the experiment, cells were harvested with Detachin™ cell detachment solution (Genlantis, San Diego, Calif.) and maintained in serum-free culture medium supplemented with 25 mM HEPES up to several hours prior to experiment. Whole-cell patch-clamp recordings were obtained using extracellular saline consisting of (mM): 87.5 CsCl, 40 TEA-Cl, 5 CaCl2, 1 MgCl2, 10 HEPES, 10 glucose. The pH was adjusted to 7.2 with CsOH and the osmolarity was adjusted to approximately 310 mOsm with sucrose. Intracellular solution consisted of (mM): 112 CsCl, 27 CsF, 2 NaCl, 8.2 EGTA, 10 HEPES. Prior to an experiment 4 mM Mg2ATP was added and the pH was adjusted to 7.2 with CsOH with an osmolarity of approximately 290 mOsm. A two-pulse voltage protocol was utilized to assess compound inhibition. First, cells were held with an 8 s pre-pulse at −100 mV prior to a 160 ms test pulse to −30 mV. This was followed by an 8 s pre-pulse at approximately −75 mV prior to a […]. Increasing concentrations of antagonist were applied to individual cells in a multi-addition format with 5 minutes in each test concentration. For each cell, responses were normalized to dimethyl sulfoxide vehicle control to generate concentration-response curves.

Structures are written as SMILES.

The source of these data is patent US8741899B2, “(4-chloro-2-fluoro-N-(2-fluorophenyl)-5-[(8aR)-hexahydropyrrolo-[1,2-a]pyrazin-2(1H)-ylcarbonyl]-benzenesulfonamide, and pharmaceutically acceptable salts thereof” (AbbVie Inc., priority 2009, dated 2014).

T1 sequence (O95180 whole entry): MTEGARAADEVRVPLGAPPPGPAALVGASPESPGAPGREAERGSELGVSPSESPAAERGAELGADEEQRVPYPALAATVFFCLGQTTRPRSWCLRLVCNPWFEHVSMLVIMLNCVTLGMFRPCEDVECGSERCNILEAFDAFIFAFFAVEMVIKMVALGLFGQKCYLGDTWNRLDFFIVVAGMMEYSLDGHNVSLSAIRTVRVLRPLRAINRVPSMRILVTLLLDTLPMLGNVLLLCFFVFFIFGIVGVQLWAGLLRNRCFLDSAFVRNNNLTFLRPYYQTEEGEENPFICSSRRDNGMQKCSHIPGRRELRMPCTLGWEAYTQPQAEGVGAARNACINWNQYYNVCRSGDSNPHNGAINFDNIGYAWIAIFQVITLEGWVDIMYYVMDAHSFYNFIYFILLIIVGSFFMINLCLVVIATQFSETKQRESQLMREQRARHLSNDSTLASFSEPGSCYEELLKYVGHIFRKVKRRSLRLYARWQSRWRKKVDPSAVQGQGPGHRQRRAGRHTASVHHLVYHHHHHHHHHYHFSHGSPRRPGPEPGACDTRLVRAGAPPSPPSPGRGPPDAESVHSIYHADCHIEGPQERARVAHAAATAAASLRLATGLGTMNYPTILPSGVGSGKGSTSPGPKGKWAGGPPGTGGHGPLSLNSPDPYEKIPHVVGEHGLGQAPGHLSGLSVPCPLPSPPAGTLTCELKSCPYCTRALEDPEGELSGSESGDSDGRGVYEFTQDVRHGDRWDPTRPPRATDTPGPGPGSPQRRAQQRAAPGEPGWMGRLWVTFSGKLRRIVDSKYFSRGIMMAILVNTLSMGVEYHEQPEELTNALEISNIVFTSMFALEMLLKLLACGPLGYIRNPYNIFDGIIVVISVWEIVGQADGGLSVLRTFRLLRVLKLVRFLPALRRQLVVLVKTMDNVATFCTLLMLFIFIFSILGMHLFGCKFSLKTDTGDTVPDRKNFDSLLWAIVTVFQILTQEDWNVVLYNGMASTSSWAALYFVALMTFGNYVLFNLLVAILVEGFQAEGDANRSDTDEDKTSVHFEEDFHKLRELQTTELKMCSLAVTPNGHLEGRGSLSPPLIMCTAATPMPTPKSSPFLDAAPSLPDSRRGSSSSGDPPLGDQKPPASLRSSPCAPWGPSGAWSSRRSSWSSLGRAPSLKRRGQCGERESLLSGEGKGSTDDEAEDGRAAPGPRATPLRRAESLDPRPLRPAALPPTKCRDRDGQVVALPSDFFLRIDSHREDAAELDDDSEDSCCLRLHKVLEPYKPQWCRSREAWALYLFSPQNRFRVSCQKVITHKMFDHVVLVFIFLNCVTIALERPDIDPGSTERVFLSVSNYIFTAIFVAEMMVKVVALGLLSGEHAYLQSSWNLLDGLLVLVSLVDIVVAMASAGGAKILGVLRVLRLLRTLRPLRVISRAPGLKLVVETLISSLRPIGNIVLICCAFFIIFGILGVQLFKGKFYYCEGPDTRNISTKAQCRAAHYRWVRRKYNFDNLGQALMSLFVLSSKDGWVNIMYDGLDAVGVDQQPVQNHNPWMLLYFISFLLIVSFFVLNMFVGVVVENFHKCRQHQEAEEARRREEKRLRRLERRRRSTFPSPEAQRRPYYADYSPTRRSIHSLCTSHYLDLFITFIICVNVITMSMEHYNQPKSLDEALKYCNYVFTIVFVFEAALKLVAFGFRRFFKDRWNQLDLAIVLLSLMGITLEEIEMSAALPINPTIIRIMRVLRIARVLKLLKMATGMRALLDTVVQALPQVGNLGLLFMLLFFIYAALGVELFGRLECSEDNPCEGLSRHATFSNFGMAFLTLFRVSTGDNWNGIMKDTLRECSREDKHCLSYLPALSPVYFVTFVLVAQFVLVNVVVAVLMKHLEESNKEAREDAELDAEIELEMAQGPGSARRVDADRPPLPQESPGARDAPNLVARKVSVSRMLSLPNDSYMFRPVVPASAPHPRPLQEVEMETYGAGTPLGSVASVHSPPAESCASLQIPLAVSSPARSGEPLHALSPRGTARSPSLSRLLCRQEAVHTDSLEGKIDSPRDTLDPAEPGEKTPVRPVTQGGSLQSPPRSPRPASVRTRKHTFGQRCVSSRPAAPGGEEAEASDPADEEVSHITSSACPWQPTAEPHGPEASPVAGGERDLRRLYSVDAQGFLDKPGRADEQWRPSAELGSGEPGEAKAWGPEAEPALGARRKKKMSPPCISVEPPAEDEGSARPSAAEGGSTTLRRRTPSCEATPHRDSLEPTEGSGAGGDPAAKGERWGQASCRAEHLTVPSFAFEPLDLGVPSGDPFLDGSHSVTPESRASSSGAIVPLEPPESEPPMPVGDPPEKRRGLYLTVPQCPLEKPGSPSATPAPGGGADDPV

Regarding `O=C(c1cccc(S(=O)(=O)Nc2ccccc2F)c1)N1CCN2CCC[C@@H]2C1` [Example 2, N-(2-fluorophenyl)-3-[(8aR)-hexahydropyrrolo[1,2-a]pyrazin-2(1H)-ylcarbonyl]benzenesulfonamide], in the assay on Sprague Dawley rats, the “Inhibition to Pain Response, % inhibition @ 30 mg/kg p.o.” value was found to be 58%. At Human Cav3.2 Channels, the IC50 (commonly the concentration needed to halve the response being measured) came to 10.6 µM. As to `O=C(c1cccc(S(=O)(=O)Nc2cccc(F)c2)c1)N1CCN2CCC[C@H]2C1` [Example 3, N-(3-fluorophenyl)-3-[(8aS)-hexahydropyrrolo[1,2-a]pyrazin-2(1H)-ylcarbonyl]benzenesulfonamide], in the assay on Sprague Dawley rats, the “Inhibition to Pain Response, % inhibition @ 30 mg/kg p.o.” value is listed as 44%. The IC50 on Human Cav3.2 Channels was determined as 5.9 µM. In the case of `O=C(c1cccc(S(=O)(=O)Nc2c(F)cccc2F)c1)N1CCN2CCC[C@@H]2C1` [Example 13, N-(2,6-difluorophenyl)-3-[(8aR)-hexahydropyrrolo[1,2-a]pyrazin-2(1H)-ylcarbonyl]benzenesulfonamide], the “Inhibition to Pain Response, % inhibition @ 30 mg/kg p.o.” value with Sprague Dawley rats is on record as 37%. Also, at Human Cav3.2 Channels, the IC50 turned out to be 5.6 µM.

For the compound `O=C(c1cc(S(=O)(=O)Nc2ccccc2F)c(F)cc1Cl)N1CCN2CCC[C@@H]2C1` [Example 20, 4-chloro-2-fluoro-N-(2-fluorophenyl)-5-[(8aR)-hexahydropyrrolo[1,2-a]pyrazin-2(1H)-ylcarbonyl]benzenesulfonamide], the “Inhibition to Pain Response, % inhibition @ 30 mg/kg p.o.” value with Sprague Dawley rats was 43%. Besides, the IC50 on Human Cav3.2 Channels was 6 µM.

On to `O=C(c1cccc(S(=O)(=O)Nc2ccc(C(F)(F)F)cc2)c1)N1CCN2CCCCC2C1` (stereo not shown) [Example 37, 3-(octahydro-2H-pyrido[1,2-a]pyrazin-2-ylcarbonyl)-N-[4-(trifluoromethyl)phenyl]benzenesulfonamide], for which the “Inhibition to Pain Response, % inhibition @ 30 mg/kg p.o.” value with Sprague Dawley rats is on record as 63%. Besides, at Human Cav3.2 Channels, the IC50 stood at 1.1 µM. On to `O=C(c1cc(S(=O)(=O)N2CCc3ccccc32)c(F)cc1Cl)N1CCN2CCC[C@@H]2C1` [Example 63, (8aR)-2-[2-chloro-5-(2,3-dihydro-1H-indol-1-ylsulfonyl)-4-fluorobenzoyl]octahydropyrrolo[1,2-a]pyrazine], for which, at Human Cav3.2 Channels, the IC50 is greater than 10 µM.

As for `O=C(c1cc(S(=O)(=O)Nc2ccccc2F)c(Cl)cc1Cl)N1CCN2CCC[C@@H]2C1` [Example 64, 2,4-dichloro-N-(2-fluorophenyl)-5-[(8aR)-hexahydropyrrolo[1,2-a]pyrazin-2(1H)-ylcarbonyl]benzenesulfonamide], the “Inhibition to Pain Response, % inhibition @ 30 mg/kg p.o.” value in the assay with Sprague Dawley rats is given as 57%. Further, the IC50 at Human Cav3.2 Channels was 1.7 µM. On to `O=C(c1ccc(F)c(NS(=O)(=O)c2cccc(C(F)(F)F)c2)c1)N1CCN2CCC[C@@H]2C1` [Example 65, N-{2-fluoro-5-[(8aR)-hexahydropyrrolo[1,2-a]pyrazin-2(1H)-ylcarbonyl]phenyl}-3-(trifluoromethyl)benzenesulfonamide], for which, on Human Cav3.2 Channels, the IC50 was 1.84 µM. For `CN(c1ccccc1F)S(=O)(=O)c1cc(C(=O)N2CCN3CCC[C@@H]3C2)c(Cl)cc1F` [Example 66, 4-chloro-2-fluoro-N-(2-fluorophenyl)-5-[(8aR)-hexahydropyrrolo[1,2-a]pyrazin-2(1H)-ylcarbonyl]-N-methylbenzenesulfonamide], the IC50 on Human Cav3.2 Channels is 5.9 µM.

Take `O=C(c1cc(S(=O)(=O)N2CCN(c3ccc(F)cc3)CC2)c(F)cc1Cl)N1CCN2CCC[C@@H]2C1` [Example 67, (8aR)-2-(2-chloro-4-fluoro-5-{[4-(4-fluorophenyl)piperazin-1-yl]sulfonyl}benzoyl)octahydropyrrolo[1,2-a]pyrazine]: on Human Cav3.2 Channels, the IC50 was found to be 3.18 µM. Consider `O=C(Nc1cc(C(=O)N2CCN3CCC[C@@H]3C2)ccc1Cl)c1ccc(F)cc1` [Example 68, N-{2-chloro-5-[(8aR)-hexahydropyrrolo[1,2-a]pyrazin-2(1H)-ylcarbonyl]phenyl}-4-fluorobenzamide], for which the IC50 on Human Cav3.2 Channels amounted to 10.9 µM. Still for that read-out and setting: then `CN(c1cccc(C(=O)N2CCN3CCC[C@@H]3C2)c1)S(=O)(=O)c1cccc(C(F)(F)F)c1` [Example 69, N-{3-[(8aR)-hexahydropyrrolo[1,2-a]pyrazin-2(1H)-ylcarbonyl]phenyl}-N-methyl-3-(trifluoromethyl)benzenesulfonamide], with greater than 10 µM; and `O=C(c1cc(S(=O)(=O)NCC(c2ccccc2)c2ccccc2)c(F)cc1Cl)N1CCN2CCC[C@@H]2C1` [Example 70, 4-chloro-N-(2,2-diphenylethyl)-2-fluoro-5-[(8aR)-hexahydropyrrolo[1,2-a]pyrazin-2(1H)-ylcarbonyl]benzenesulfonamide], with 7.2 µM; and `Cc1cc(C(=O)N2CCN3CCC[C@@H]3C2)ccc1NC(=O)c1ccc2ccccc2c1` [Example 72, N-{4-[(8aR)-hexahydropyrrolo[1,2-a]pyrazin-2(1H)-ylcarbonyl]-2-methylphenyl}-2-naphthamide], with greater than 10 µM. Still for that read-out and setting: next, `O=C(Nc1cc(C(=O)N2CCN3CCC[C@@H]3C2)ccc1F)c1cc(Cl)cc(Cl)c1` [Example 73, 3,5-dichloro-N-{2-fluoro-5-[(8aR)-hexahydropyrrolo[1,2-a]pyrazin-2(1H)-ylcarbonyl]phenyl}benzamide]: 1.8 µM. Still for that read-out and setting: next, `O=C(c1cc(S(=O)(=O)NC(c2ccccc2)c2ccccc2)c(F)cc1Cl)N1CCN2CCC[C@@H]2C1` [Example 74, N-benzhydryl-4-chloro-2-fluoro-5-[(8aR)-hexahydropyrrolo[1,2-a]pyrazin-2(1H)-ylcarbonyl]benzenesulfonamide]: 2 µM; `O=C(Nc1ccc(C(=O)N2CCN3CCC[C@@H]3C2)cc1Cl)C(c1ccccc1)c1ccccc1` [Example 75, N-{2-chloro-4-[(8aR)-hexahydropyrrolo[1,2-a]pyrazin-2(1H)-ylcarbonyl]phenyl}-2,2-diphenylacetamide]: 6.5 µM.

Consider `O=C(Nc1ccc(C(=O)N2CCN3CCC[C@@H]3C2)cc1Cl)c1ccc2ccccc2c1` [Example 76, N-{2-chloro-4-[(8aR)-hexahydropyrrolo[1,2-a]pyrazin-2(1H)-ylcarbonyl]phenyl}-2-naphthamide], for which the IC50 on Human Cav3.2 Channels amounted to 6.4 µM. The same measure, in the same setting: then `CC(C)N(c1cccc(C(=O)N2CCN3CCC[C@@H]3C2)c1)S(=O)(=O)c1cccc(C(F)(F)F)c1` [Example 77, N-{3-[(8aR)-hexahydropyrrolo[1,2-a]pyrazin-2(1H)-ylcarbonyl]phenyl}-N-isopropyl-3-(trifluoromethyl)benzenesulfonamide], with greater than 10 µM. Still for that read-out and setting: then `O=C(Nc1cc(C(=O)N2CCN3CCC[C@@H]3C2)ccc1Cl)C(c1ccccc1)c1ccccc1` [Example 78, N-{2-chloro-5-[(8aR)-hexahydropyrrolo[1,2-a]pyrazin-2(1H)-ylcarbonyl]phenyl}-2,2-diphenylacetamide], with greater than 10 µM; and `O=C(c1ccc(Cl)c(NC(c2ccccc2)c2ccccc2)c1)N1CCN2CCC[C@@H]2C1` [Example 79, N-benzhydryl-N-{2-chloro-5-[(8aR)-hexahydropyrrolo[1,2-a]pyrazin-2(1H)-ylcarbonyl]phenyl}amine], with 8.5 µM; and `O=C(c1cccc(NC(c2ccccc2)c2ccccc2)c1)N1CCN2CCC[C@@H]2C1` [Example 80, N-benzhydryl-N-{3-[(8aR)-hexahydropyrrolo[1,2-a]pyrazin-2(1H)-ylcarbonyl]phenyl}amine], with 2 µM.

As to `O=C(N[C@H](CO)c1ccccc1)c1cccc(S(=O)(=O)N2CCN3CCC[C@@H]3C2)c1` [Example 81, 3-[(8aR)-hexahydropyrrolo[1,2-a]pyrazin-2(1H)-ylsulfonyl]-N-[(1S)-2-hydroxy-1-phenylethyl]benzamide], the IC50 on Human Cav3.2 Channels is greater than 10 µM. As for `O=C(NC(c1ccccc1)c1ccccc1)c1cc(S(=O)(=O)N2CCN3CCC[C@H]3C2)c(F)cc1Cl` [Example 82, N-benzhydryl-2-chloro-4-fluoro-5-[(8aS)-hexahydropyrrolo[1,2-a]pyrazin-2(1H)-ylsulfonyl]benzamide], on Human Cav3.2 Channels, the IC50 was 2.6 µM. The same measure, in the same setting: next, `O=C(NC1CC1)c1cc(S(=O)(=O)N2CCN3CCC[C@H]3C2)c(F)cc1Cl` [Example 83, 2-chloro-N-cyclopropyl-4-fluoro-5-[(8aS)-hexahydropyrrolo[1,2-a]pyrazin-2(1H)-ylsulfonyl]benzamide]: greater than 10 µM.
